Data from publication PMC9483557, “Reisomerization of retinal represents a molecular switch mediating Na^+ uptake and release by a bacterial sodium-pumping rhodopsin” (The Journal of Biological Chemistry, 2022).

Target: T1, IaNaR (Indibacter alkaliphilus, UniProt S2D3K4)
T1 construct: gene A33Q_3728; C-terminal His tag, E. coli BL21, vector pKA001, DDM-solubilised, Ni-NTA purified, reconstituted in Egg-PC liposomes
T1 sequence (S2D3K4 1-279): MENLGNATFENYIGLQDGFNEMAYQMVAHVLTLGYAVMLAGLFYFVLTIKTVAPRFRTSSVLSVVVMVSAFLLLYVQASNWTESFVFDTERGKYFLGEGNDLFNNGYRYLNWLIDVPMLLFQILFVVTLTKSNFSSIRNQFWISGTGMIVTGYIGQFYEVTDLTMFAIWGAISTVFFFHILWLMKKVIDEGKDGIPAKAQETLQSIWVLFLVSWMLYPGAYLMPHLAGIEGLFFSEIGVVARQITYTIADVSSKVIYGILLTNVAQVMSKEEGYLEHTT
Experiment: time-resolved cryo-Raman ([…] nm preresonance) and absorption spectroscopy
Format: binding
Settings: covalent; protonated Schiff base to helix G lysine; dark state all-trans; humidified film, 268 K, pH 8.0, NaCl

Structure (SMILES): CC1=C(/C=C/C(C)=C/C=C/C(C)=C/C=O)C(C)(C)CCC1 [retinal]
- time-resolved cryo-Raman (785 nm preresonance) and absorption spectroscopy: the vibrational modes of the RSB chromophore were selectively observed due to the preresonance enhancement
